1 compound from paper PMC7503713, “GANT61 Reduces Hedgehog Molecule (GLI1) Expression and Promotes Apoptosis in Metastatic Oral Squamous Cell Carcinoma Cells” (International Journal of Molecular Sciences, 2020) can be followed below.

What all share (format): cell-based, human
One assay deals with CAL27. As to the kind of experiment: alamarBlue cytotoxicity assay, CAL27. The settings on record: Homo sapiens, CAL-27, 72 h of incubation. On the procedure:
(§1) To assess the cytotoxicity of the GLI inhibitor GANT61 (Sigma-Aldrich, St. Louis, MO, USA) in tumor and non-tumor cell lines, an alamarBlue assay (Sigma-Aldrich Chemical Co, St. Louis, MO, USA) was performed after 72 h of exposure to the inhibitor, as described by Ahmed et al., 1994 [46]. Cells were distributed on 96-well plates at a density of 7 × 10^4 cells/mL for adhered cells, and 3 × 10^5 cells/mL for cells in suspension. All tested compounds were dissolved in DMSO, added to wells containing 100 µL of cells in complete medium, and then incubated for 72 h. Eight concentrations of GANT61 (0.19 to 50 µg/mL), Doxorubicin (Laboratory IMA S.A.I.C., Buenos Aires, Argentina), and 5-Fluorouracil (5-FU, Sigma-Aldrich, St. Louis, MO, USA), both used as positive controls at concentrations ranging from 0.03 to 5 µg/mL, were added to respective wells. Cells treated with the vehicle (0.5% DMSO) used to dilute the tested compounds were used as negative controls. Before the end of the incubation period (4 h for cell lines and 24 h for PBMCs), 20 µL of alamarBlue stock solution (resazurin, Sigma-Aldrich, St. Louis, MO, USA) was added to each well. Absorbance was measured at 570 nm (reduced) and 595 nm (oxidized) wavelengths, using a Spectramax 190 plate reader (Molecular Devices; Sunnyvale, CA, USA).
(§2) Statistical analyses were performed, using GraphPad Prism v. 6.03 (GraphPad Software, Inc., San Diego, USA). Data were analyzed according to distribution along the normal Gaussian curve. IC50 values were obtained through non-linear regression, using results from three independent experiments carried out in duplicate. Differences between groups resulting from in vitro assays were evaluated by ANOVA (analysis of variance) testing, followed by the Student–Newman–Keuls test. This study considered a level of significance, corresponding to alpha (α) or “p” value, when results were less than or equal to 5%.

In a further assay the test system is HSC3. Briefly: alamarBlue cytotoxicity assay, HSC3. The note with it: Homo sapiens, HSC-3, 72 h of incubation. Here is the method: For cytotoxicity assessments, this study primarily focused on the highly metastatic HSC3 OSCC cell line (JCRB Cell Bank, Osaka, Japan) and employed other histological tumor cell types and non-tumor cells (Supplementary Table S1). HSC3 cells were placed in flasks ([…], 250 mL volume) containing DMEM medium (Gibco, Lif Technologies, Gaithesburg, MD, USA) supplemented with 10% fetal bovine serum (FBS, Gibco, Life Technologies, Gaithesburg, MD, USA) 1% penicillin, 1% streptomycin (Gibco, Life Technologies, Gaithesburg, MD, USA), and 0.8% hydrocortisone (Sigma-Aldrich, St. Louis, MO, USA). Cells were cultured and kept in incubators, under an atmosphere of 5% CO2 at 37 °C. Trypsinization was used to dissociate cells when cell growth reached the necessary confluence, i.e., 70 to 80% of the total culture flask volume. Cell cultures were tested periodically for mycoplasma contamination and evaluated by using a luminometer, according to the MycoAlert^TM PLUS protocol (Lonza, Walkersville Inc., Walkersville, MD, USA, 2012).
as §1
Statistical analyses were performed, using GraphPad Prism v. 6.03 (GraphPad Software, Inc., San Diego, USA). Data were analyzed according to distribution along the normal Gaussian curve. […] Differences between groups resulting from in vitro assays were evaluated by ANOVA (analysis of variance) testing, followed by the Student–Newman–Keuls test. […]

For a further assay, the system named is SCC4. Briefly: alamarBlue cytotoxicity assay, SCC4. The settings on record: Homo sapiens, SCC-4, 72 h of incubation. Here is the method: as §1, with “Cells treated with the vehicle (0.5% DMSO) used to dilute the tested compounds were used as negative controls. Before the end of the incubation period (4 h for cell lines and 24 h for PBMCs), 20 µL of alamarBlue stock solution (resazurin, Sigma-Aldrich, St. Louis, MO, USA) was added to each well.” left out
(§3) Statistical analyses were performed, using GraphPad Prism v. […] Data were analyzed according to distribution along the normal Gaussian curve. […] Differences between groups resulting from in vitro assays were evaluated by ANOVA (analysis of variance) testing, followed by the Student–Newman–Keuls test. […]

The next assay deals with SCC9. As to the kind of experiment: alamarBlue cytotoxicity assay, SCC9. The settings on record: Homo sapiens, SCC-9, 72 h of incubation. Here is the method:
as §1, §2

Another assay deals with SCC15. As to the kind of experiment: alamarBlue cytotoxicity assay, SCC15. The note with it: Homo sapiens, SCC-15, 72 h of incubation. On the procedure:
as §1, with “Cells treated with the vehicle (0.5% DMSO) used to dilute the tested compounds were used as negative controls. Before the end of the incubation period (4 h for cell lines and 24 h for PBMCs), 20 µL of alamarBlue stock solution (resazurin, Sigma-Aldrich, St. Louis, MO, USA) was added to each well.” left out
as §3

In a further assay the test system is SCC25. As to the kind of experiment: alamarBlue cytotoxicity assay, SCC25. The settings on record: Homo sapiens, SCC-25, 72 h of incubation. On the procedure:
as §1, with “Cells treated with the vehicle (0.5% DMSO) used to dilute the tested compounds were used as negative controls. Before the end of the incubation period (4 h for cell lines and 24 h for PBMCs), 20 µL of alamarBlue stock solution (resazurin, Sigma-Aldrich, St. Louis, MO, USA) was added to each well.” left out
as §3

In a further assay the test system is HepG2. Briefly: alamarBlue cytotoxicity assay, HepG2. The settings on record: Homo sapiens, 72 h of incubation. On the procedure:
as §1, §2

The next assay deals with HL60. As to the kind of experiment: alamarBlue cytotoxicity assay, HL60. The note with it: Homo sapiens, HL-60, 72 h of incubation. On the procedure:
as §1, with “Cells treated with the vehicle (0.5% DMSO) used to dilute the tested compounds were used as negative controls. Before the end of the incubation period (4 h for cell lines and 24 h for PBMCs), 20 µL of alamarBlue stock solution (resazurin, Sigma-Aldrich, St. Louis, MO, USA) was added to each well.” left out
as §3

Another assay has as its system K562. Briefly: alamarBlue cytotoxicity assay, K562. The settings on record: Homo sapiens, 72 h of incubation. Here is the method: as §1, §2
The test system of another assay is AGP01. Briefly: alamarBlue cytotoxicity assay, AGP01. The note with it: Homo sapiens, 72 h of incubation. Here is the method: as §1, with “Cells treated with the vehicle (0.5% DMSO) used to dilute the tested compounds were used as negative controls. Before the end of the incubation period (4 h for cell lines and 24 h for PBMCs), 20 µL of alamarBlue stock solution (resazurin, Sigma-Aldrich, St. Louis, MO, USA) was added to each well.” left out
as §3

In the next assay the test system is APC02. Briefly: alamarBlue cytotoxicity assay, APC02. The settings on record: Homo sapiens, 72 h of incubation. Here is the method:
as §1, with “Cells treated with the vehicle (0.5% DMSO) used to dilute the tested compounds were used as negative controls. Before the end of the incubation period (4 h for cell lines and 24 h for PBMCs), 20 µL of alamarBlue stock solution (resazurin, Sigma-Aldrich, St. Louis, MO, USA) was added to each well.” left out
as §3

A further assay has as its system APC03. As to the kind of experiment: alamarBlue cytotoxicity assay, APC03. The settings on record: Homo sapiens, 72 h of incubation. Here is the method:
as §1, with “Cells treated with the vehicle (0.5% DMSO) used to dilute the tested compounds were used as negative controls. Before the end of the incubation period (4 h for cell lines and 24 h for PBMCs), 20 µL of alamarBlue stock solution (resazurin, Sigma-Aldrich, St. Louis, MO, USA) was added to each well.” left out
as §3

The subject of a further assay is HT-29. Briefly: alamarBlue cytotoxicity assay, HT-29. The settings on record: Homo sapiens; HT-29, alamarBlue, 72 h of incubation. On the procedure:
as §1, with “Cells treated with the vehicle (0.5% DMSO) used to dilute the tested compounds were used as negative controls. Before the end of the incubation period (4 h for cell lines and 24 h for PBMCs), 20 µL of alamarBlue stock solution (resazurin, Sigma-Aldrich, St. Louis, MO, USA) was added to each well.” left out
as §3

A further assay has as its system HCT-116. Briefly: alamarBlue cytotoxicity assay, HCT-116. The note with it: Homo sapiens; HCT-116, alamarBlue, 72 h of incubation. Here is the method:
as §1, §2

In the next assay the test system is HaCat. As to the kind of experiment: alamarBlue cytotoxicity assay, HaCat. The note with it: Homo sapiens, 72 h of incubation. On the procedure: as §1, with “Cells treated with the vehicle (0.5% DMSO) used to dilute the tested compounds were used as negative controls. Before the end of the incubation period (4 h for cell lines and 24 h for PBMCs), 20 µL of alamarBlue stock solution (resazurin, Sigma-Aldrich, St. Louis, MO, USA) was added to each well.” left out
as §3

The test system of a further assay is PBMC. As to the kind of experiment: alamarBlue cytotoxicity assay, PBMC. The note with it: Homo sapiens, 72 h of incubation. Here is the method: Human peripheral blood mononuclear cells (PBMC) lymphocytes and monocytes) were obtained from the peripheral blood of healthy, non-smoking volunteers aged 25–35 years. None of the volunteers had used any type of drug or medication for at least 15 days prior to collection. Blood collection (5 mL) was performed in heparinized vials by trained professionals at the Laboratory of Tissue Engineering and Immunopharmacology (LETI, IGM-FIOCRUZ, Salvador, Brazil), using sterile disposable syringes. PBMCs were isolated by a standard protocol described by Dias et al. (2018). The institutional review board of the Gonçalo Moniz Institution, Oswaldo Cruz Foundation (IGM-FIOCRUZ), in Salvador, Bahia, Brazil, approved all experimental protocols (No.031019/2013). All participants provided written informed consent prior to participation in the study.
To assess the cytotoxicity of the GLI inhibitor GANT61 (Sigma-Aldrich, St. Louis, MO, USA) in tumor and non-tumor cell lines, an alamarBlue assay (Sigma-Aldrich Chemical Co, St. Louis, MO, USA) was performed after 72 h of exposure to the inhibitor, as described by Ahmed et al., 1994 [46]. Cells were distributed on 96-well plates at a density of 7 × 10^4 cells/mL for adhered cells, and 3 × 10^5 cells/mL for cells in suspension. All tested compounds were dissolved in DMSO, added to wells containing 100 µL of cells in complete medium, and then incubated for 72 h. […] Absorbance was measured at 570 nm (reduced) and 595 nm (oxidized) wavelengths, using a Spectramax 190 plate reader (Molecular Devices; Sunnyvale, CA, USA).
as §3

Consider `COc1cccc2c1C(=O)c1c(O)c3c(c(O)c1C2=O)C[C@@](O)(C(=O)CO)C[C@@H]3O[C@H]1C[C@H](N)[C@H](O)[C@H](C)O1` [Doxorubicin], for which the IC50 was found to be 3090 nM with CAL27; 340 nM in the assay on HSC3; 70 nM with SCC4; 800 nM in the assay with SCC9; 1500 nM in the assay on SCC15; 1400 nM in the assay on SCC25. For the same compound, the IC50 in the assay on HepG2 amounted to 10 nM; in the assay on HL60, 10 nM; with K562, 50 nM; in the assay with AGP01 it was 1890 nM; in the assay with APC02, 6800 nM; in the assay with APC03, 2300 nM. Moreover, the IC50 in the assay with HT-29 stood at 300 nM; with HCT-116 it was 200 nM; in the assay on HaCat, 100 nM; with PBMC it was 5200 nM.
